What follows are compounds tested against T1, Acetylcholinesterase (AChE) (Electrophorus electricus, UniProt O42275) (assay: In vitro anti-acetylcholinesterase assay (Ellman's method)). Details: read-out: AChE Inhibition (IC50).
T1 construct: purchased Sigma Aldrich type VI-S
T1 sequence (O42275 24-633): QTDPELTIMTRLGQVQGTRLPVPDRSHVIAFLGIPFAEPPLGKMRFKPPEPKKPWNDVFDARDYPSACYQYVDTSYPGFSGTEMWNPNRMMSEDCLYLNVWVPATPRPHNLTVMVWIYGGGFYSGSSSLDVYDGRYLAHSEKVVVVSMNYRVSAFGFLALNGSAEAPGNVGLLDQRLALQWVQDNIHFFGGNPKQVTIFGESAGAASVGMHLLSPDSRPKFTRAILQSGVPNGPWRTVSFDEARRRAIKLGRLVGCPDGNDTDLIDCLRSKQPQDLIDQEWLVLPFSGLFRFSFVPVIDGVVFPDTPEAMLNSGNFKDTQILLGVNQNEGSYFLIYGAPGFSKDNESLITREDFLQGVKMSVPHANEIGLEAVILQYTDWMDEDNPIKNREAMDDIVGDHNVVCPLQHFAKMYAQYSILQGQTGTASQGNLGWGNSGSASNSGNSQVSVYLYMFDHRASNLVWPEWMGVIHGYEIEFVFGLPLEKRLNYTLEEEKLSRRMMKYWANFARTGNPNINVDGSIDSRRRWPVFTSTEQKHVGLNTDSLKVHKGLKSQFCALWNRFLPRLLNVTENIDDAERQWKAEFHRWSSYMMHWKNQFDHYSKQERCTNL
Assay type: biochemical
From the text: In vitro enzyme assay reagents were purchased as previously described. Acetylcholinesterase (AChE) from Electrophorus electricus type VI-S lyophilized powder (137 units/mg) was acquired from Sigma Aldrich (St. Louis, MO, USA). Substrate acetylthiocholine iodide (ATCl) and sodium phosphate monobasic and dibasic anhydrous used for buffer preparation were obtained from Wako Pure Chemical (Osaka, Japan). Coloring reagent 5,5′-dithio-bis-(2-nitrobenzoic acid) (DTNB) was acquired from Nacalai Tesque (Kyoto, Japan). […] All other reagents acquired from commercial sources were of analytical grade.
The plant fractions and isolated compounds were evaluated for their anti-AChE potential in triplicate based on the Ellman’s method described previously.
Compound CC(C)=CCC/C(C)=C/Cc1c(C2CC(=O)c3c(O)cc(O)c(CC=C(C)C)c3O2)ccc(O)c1O (centres unmarked) [Compound 1, solophenol A] has an IC50 of 1 µM. CC(C)=CCC/C(C)=C/Cc1c([C@@H]2CC(=O)c3c(O)cc(O)cc3O2)ccc(O)c1O [Compound 2, nymphaeol B] showed an IC50 of 33 µM. CC(C)=CCCC(C)=CCc1c(O)cc2c(c1O)C(=O)CC(c1cc(O)cc(O)c1)O2 (centres unmarked) [Compound 3, schizolaenone C] gave an IC50 of 6.8 µM. CC/C=C\C/C=C\C/C=C\CCCCCCCc1cccc(O)c1C(=O)O [Compound 4, 6-heptadeca-8Z,11Z,14Z-trienyl salicylic acid] gave an IC50 of 2.4 µM. With CCCC/C=C\C/C=C\CCCCCCCCc1cccc(O)c1C(=O)O [Compound 5, 6-heptadeca-9Z,12Z-dienyl salicylic acid] the IC50 was 0.54 µM.

— paper PMC9102781 (Molecules, 2022)
